The values that follow come from patent US12084430B2, “Tricyclic urea compounds as JAK2 V617F inhibitors” (Incyte Corporation, priority 2022, dated 2024).

One assay deals with FLT3. As to the kind of experiment: FLT3 enzymatic assay. Format: biochemical. The procedure, abridged:
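Kinase reaction at room temperature in HEPES 50 mM pH 7.0 with 10 mM MgCl2, 1 mM DTT: 0.011 nM FLT3, 1 mM ATP, 500 nM biotinylated TK substrate, 0.5% DMSO. After 60 min, HTRF read as 665/620 nm ratio; IC50 from fit of percent control activity versus log concentration.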

Assay [1] concerns the target T1, pseudo-kinase domain (JH2) of human V617F mutant JAK2 (Homo sapiens, UniProt O60674, F794H/V617F/W659A/W777A).
T1 construct: pseudo-kinase domain (JH2, amino-acids 536-812 with 3 surface mutations W659A, W777A, F794H); His (C); purchased BPS Bioscience 79498; host or cells: baculovirus expression system
As to the kind of experiment: JAK2 LanthaScreen JH2-V617F binding assay. The following applies: read-out: JH2 V617F Bind IC50. A general note: Time-resolved FRET reads energy transfer from a long-lived donor to a nearby acceptor.

Assay [2] concerns the target TRKA (Homo sapiens, UniProt P04629). As to the kind of experiment: TRKA enzymatic assay. Format: biochemical. The following applies: 1 mM ATP. The procedure, abridged:
(§1)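 The reaction mix held 0.58 nM TRKA, 1 mM ATP and 500 nM biotinylated TK substrate in 50 mM HEPES pH 7.0 with 10 mM MgCl2, 1 mM DTT and 0.5% DMSO, run 60 min at room temperature. Product was detected by TR-FRET as the 665/620 nm ratio. IC50 was fitted from % control activity versus log concentration, using DMSO-only and no-ATP wells as controls.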

The test system of assay [3] is TRKA. As to the kind of experiment: TRKA enzymatic assay. Format: biochemical. The procedure, abridged:
as §1

The test system of assay [4] is KIT. As to the kind of experiment: KIT enzymatic assay. Format: biochemical. The procedure, abridged:
(§2)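 0.12 nM KIT with 1 mM ATP and 500 nM biotinylated TK substrate in 50 mM HEPES pH 7.0, 10 mM MgCl2, 1 mM DTT, 0.1 mM orthovanadate, 0.5% DMSO; 60 min at room temperature. TR-FRET 665/620 nm ratio; IC50 fitted from percent control activity versus log concentration.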

The target in assay [5] is KIT (Homo sapiens, UniProt P10721). As to the kind of experiment: KIT enzymatic assay. Format: biochemical. The following applies: 1 mM ATP. The procedure, abridged:
as §2

Molecules are shown by their SMILES. Like-named read-outs stand apart in the source and are kept apart here. Where only a bound is given, the exact number is not on record here.

T1 sequence (O60674 536-812 V617F/W659A/W777A/F794H): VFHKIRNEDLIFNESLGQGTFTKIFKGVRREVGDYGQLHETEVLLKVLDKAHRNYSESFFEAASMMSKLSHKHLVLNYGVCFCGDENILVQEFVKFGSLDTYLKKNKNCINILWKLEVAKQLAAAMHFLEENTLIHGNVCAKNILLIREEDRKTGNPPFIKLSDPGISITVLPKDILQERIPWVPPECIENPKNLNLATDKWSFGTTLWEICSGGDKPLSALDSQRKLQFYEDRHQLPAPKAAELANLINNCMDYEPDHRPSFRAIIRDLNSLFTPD
Sequence of KIT (Homo sapiens, UniProt P10721) (P10721 26-976, species assumed): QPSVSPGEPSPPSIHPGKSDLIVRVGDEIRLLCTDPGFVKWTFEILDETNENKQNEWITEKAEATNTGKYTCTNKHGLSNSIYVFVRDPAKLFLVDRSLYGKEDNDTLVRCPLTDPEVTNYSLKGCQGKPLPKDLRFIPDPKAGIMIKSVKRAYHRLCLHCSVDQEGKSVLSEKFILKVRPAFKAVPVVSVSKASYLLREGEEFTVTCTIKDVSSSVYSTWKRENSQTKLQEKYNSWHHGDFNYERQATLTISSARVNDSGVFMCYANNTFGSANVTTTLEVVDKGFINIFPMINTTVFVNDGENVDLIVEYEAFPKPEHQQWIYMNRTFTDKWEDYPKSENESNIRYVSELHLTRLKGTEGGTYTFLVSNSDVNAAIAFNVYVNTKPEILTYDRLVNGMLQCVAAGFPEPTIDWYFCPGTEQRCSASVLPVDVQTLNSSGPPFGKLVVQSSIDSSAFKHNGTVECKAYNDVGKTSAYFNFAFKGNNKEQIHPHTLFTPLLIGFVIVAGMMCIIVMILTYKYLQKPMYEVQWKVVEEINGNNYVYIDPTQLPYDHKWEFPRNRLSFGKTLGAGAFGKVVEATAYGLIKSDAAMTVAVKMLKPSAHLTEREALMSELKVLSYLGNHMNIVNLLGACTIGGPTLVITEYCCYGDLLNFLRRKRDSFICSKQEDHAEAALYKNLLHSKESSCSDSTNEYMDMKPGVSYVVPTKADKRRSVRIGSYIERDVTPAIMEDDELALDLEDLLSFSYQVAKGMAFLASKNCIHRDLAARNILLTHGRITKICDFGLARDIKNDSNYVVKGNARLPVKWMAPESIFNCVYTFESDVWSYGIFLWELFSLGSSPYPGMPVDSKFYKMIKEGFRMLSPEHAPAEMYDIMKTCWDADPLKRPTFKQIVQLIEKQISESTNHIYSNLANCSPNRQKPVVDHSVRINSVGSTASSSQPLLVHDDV
Sequence of TRKA (Homo sapiens, UniProt P04629) (P04629 33-796, species assumed): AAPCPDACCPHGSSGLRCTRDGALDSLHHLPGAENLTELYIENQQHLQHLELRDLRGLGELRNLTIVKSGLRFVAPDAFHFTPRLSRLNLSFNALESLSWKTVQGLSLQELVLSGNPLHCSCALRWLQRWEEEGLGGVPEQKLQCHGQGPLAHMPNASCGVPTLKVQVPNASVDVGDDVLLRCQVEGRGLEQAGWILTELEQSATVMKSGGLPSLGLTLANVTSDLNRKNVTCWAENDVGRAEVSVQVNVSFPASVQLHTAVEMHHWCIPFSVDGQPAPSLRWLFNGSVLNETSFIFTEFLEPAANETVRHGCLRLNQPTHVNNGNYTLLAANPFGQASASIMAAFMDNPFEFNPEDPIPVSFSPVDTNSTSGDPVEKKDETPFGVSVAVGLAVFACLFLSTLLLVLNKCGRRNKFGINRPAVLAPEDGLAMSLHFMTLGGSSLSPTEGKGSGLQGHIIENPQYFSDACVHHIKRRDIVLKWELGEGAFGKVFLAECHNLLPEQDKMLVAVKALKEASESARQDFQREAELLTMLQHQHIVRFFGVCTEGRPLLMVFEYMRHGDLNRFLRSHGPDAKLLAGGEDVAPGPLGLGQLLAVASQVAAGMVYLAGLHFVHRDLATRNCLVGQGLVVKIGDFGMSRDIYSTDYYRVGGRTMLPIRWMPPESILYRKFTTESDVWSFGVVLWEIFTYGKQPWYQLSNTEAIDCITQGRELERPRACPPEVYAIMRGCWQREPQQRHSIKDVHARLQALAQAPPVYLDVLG

As usually defined, the IC50 is the midpoint of a concentration-inhibition curve. Take `[2H]C([2H])([2H])n1ncc2cc(-c3c(-c4cn(C([2H])(C([2H])([2H])[2H])C([2H])([2H])[2H])nc4F)[nH]c4ncc5c(c34)n([C@@H]3CC[C@@H](NC(=O)OC)C3)c(=O)n5C([2H])([2H])[2H])ccc21` [Example 21, Methyl ((1R,3R)-3-(7-(3-fluoro-1-(propan-2-yl-d7)-1H-pyrazol-4-yl)-3-(methyl-d3)-8-(1-(methyl-d3)-1H-indazol-5-yl)-2-oxo-3,6-dihydroimidazo[4,5-d]pyrrolo[2,3-b]pyridin-1(2H)-yl)cyclopentyl)carbamate]: the “Selectivity FLT3/JH2 V617F” value with FLT3 is listed as “****** (selectivity of >12500-fold)”. Also, the IC50 in assay [1] (Table A) was ≤ 10 nM; in assay [1] (Table C), ≤ 10 nM; at TRKA [2], > 2500 nM; on KIT [5], 1250 to 2500 nM. The “Selectivity TRKA/JH2 V617F” value with TRKA [3] was “****** (selectivity of >12500-fold)”. In addition, in the assay with KIT [4], the “Selectivity KIT/JH2 V617F” value is on record as “****** (selectivity of >12500-fold)”.
